Drawing on patent US9120786B2, “Triazine carboxamides as sodium channel blockers” (priority 2013, dated 2015), this text covers IC50 for 11 compounds.

Some results are limits rather than exact numbers.

As usually defined, the IC50 is the concentration that gives 50% inhibition.

The target of the assay is human Nav1.7 (Homo sapiens (Human), UniProt Q15858). The experiment in a line: FLIPR sodium dye assay (CoroNa Green) for sodium channel blocking activity in recombinant Nav1.7/HEK293 cells. The class given is cell-based.
human Nav1.7, sequence (Q15858 with tags, fused parts or gaps limits assumed): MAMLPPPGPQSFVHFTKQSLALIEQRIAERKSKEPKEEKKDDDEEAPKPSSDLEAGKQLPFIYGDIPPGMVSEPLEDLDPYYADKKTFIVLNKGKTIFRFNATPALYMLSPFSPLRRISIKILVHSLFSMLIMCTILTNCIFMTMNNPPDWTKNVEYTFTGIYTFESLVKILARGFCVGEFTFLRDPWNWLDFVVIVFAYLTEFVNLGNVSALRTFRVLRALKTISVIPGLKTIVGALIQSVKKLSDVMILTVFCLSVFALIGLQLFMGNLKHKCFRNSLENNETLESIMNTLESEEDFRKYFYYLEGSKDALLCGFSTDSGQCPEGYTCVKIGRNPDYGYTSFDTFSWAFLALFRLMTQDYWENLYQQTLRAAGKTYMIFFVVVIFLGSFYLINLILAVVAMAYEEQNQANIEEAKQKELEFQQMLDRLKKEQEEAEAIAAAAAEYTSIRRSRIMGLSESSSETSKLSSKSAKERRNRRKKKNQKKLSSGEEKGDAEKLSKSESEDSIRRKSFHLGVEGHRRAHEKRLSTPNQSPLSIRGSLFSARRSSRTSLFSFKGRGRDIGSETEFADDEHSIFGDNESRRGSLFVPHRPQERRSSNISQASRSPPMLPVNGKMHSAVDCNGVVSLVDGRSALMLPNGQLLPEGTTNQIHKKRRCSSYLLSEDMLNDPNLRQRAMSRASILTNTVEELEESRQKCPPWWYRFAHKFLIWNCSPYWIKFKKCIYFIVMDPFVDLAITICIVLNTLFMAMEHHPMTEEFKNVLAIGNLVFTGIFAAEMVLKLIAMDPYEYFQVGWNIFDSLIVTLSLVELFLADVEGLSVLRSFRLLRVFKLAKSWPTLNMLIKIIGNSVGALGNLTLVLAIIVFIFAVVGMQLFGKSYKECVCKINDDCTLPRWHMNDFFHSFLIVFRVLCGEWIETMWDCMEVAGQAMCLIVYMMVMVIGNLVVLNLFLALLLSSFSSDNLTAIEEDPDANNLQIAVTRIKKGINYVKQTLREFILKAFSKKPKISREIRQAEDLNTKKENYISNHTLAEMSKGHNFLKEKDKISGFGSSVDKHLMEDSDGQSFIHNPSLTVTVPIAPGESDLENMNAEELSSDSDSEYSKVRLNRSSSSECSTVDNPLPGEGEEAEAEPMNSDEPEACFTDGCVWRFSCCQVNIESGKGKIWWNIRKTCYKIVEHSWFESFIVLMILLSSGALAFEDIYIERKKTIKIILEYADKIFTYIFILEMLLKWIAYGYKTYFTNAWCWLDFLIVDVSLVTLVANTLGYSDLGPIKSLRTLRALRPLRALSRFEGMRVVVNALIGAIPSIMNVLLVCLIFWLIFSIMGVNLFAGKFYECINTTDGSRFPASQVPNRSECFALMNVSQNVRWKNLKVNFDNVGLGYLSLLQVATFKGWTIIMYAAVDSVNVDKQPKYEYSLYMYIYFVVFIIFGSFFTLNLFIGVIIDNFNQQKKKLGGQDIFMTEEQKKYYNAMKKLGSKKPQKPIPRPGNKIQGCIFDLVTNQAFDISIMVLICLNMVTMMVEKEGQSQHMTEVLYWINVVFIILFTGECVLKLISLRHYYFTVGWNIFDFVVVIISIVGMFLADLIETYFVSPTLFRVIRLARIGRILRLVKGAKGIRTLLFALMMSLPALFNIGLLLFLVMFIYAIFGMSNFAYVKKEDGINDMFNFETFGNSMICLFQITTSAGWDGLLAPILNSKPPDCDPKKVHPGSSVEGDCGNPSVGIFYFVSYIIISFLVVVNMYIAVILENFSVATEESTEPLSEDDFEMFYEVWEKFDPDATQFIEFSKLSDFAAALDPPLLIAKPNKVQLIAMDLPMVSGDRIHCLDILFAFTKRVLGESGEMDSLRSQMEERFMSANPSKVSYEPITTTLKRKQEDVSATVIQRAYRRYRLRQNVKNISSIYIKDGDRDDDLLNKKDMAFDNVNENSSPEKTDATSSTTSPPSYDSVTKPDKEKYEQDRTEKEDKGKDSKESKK
For the compound `N#Cc1nc(N[C@H]2CCNC2=O)nc(-c2ccc(Oc3ccc(OC(F)(F)F)cc3)cc2)n1` [Compound 1, (S)-4-((2-oxopyrrolidin-3-yl)amino)-6-(4-(4-(trifluoromethoxy)phenoxy)phenyl)-1,3,5-triazine-2-carbonitrile], the IC50 was 2.25 ± 0.37 µM. Regarding `NC(=O)c1nc(N)nc(N2CC(Oc3ccc(C(F)(F)F)cn3)C2)n1` [Compound 11, 4-amino-6-(3-((5-(trifluoromethyl)pyridin-2-yl)oxy)azetidin-1-yl)-1,3,5-triazine-2-carboxamide], the IC50 is over 20 µM. Take `NC(=O)c1nc(-c2ccc(Oc3ccc(C(F)(F)F)cn3)cc2)nc(N2CCOCC2)n1` [Compound 10, 4-morpholino-6-(4-((5-(trifluoromethyl)pyridin-2-yl)oxy)phenyl)-1,3,5-triazine-2-carboxamide]: the IC50 worked out at 0.353 ± 0.1 µM. `CCN(c1nc(C(N)=O)nc(-c2ccc(Oc3ccc(C(F)(F)F)cn3)cc2)n1)C(C)C` [Compound 5, 4-(ethyl(isopropyl)amino)-6-(4-((5-(trifluoromethyl)pyridin-2-yl)oxy)phenyl)-1,3,5-triazine-2-carboxamide]: the IC50 worked out at 0.645 ± 0.14 µM. As for `NC(=O)c1nc(NCCO)nc(-c2ccc(Oc3ccc(C(F)(F)F)cn3)cc2)n1` [Compound 12, 4-((2-hydroxyethyl)amino)-6-(4-((5-(trifluoromethyl)pyridin-2-yl)oxy)phenyl)-1,3,5-triazine-2-carboxamide], the IC50 was 0.243 ± 0.125 µM. Take `NC(=O)c1nc(-c2ccc(Oc3ccc(OC(F)(F)F)cc3)cc2)nc(N2CCOCC2)n1` [Compound 9, 4-morpholino-6-(4-(4-(trifluoromethoxy)phenoxy)phenyl)-1,3,5-triazine-2-carboxamide]: the IC50 came to 0.596 ± 0.102 µM. As for `N#Cc1nc(-c2ccc(Oc3ccc(C(F)(F)F)cn3)cc2)nc(N2CCOCC2)n1` [Compound 8, 4-morpholino-6-(4-((5-(trifluoromethyl)pyridin-2-yl)oxy)phenyl)-1,3,5-triazine-2-carbonitrile], the IC50 was found to be 8.09 ± 0.959 µM. To `CCN(c1nc(C(N)=O)nc(-c2ccc(Oc3ccc(OC(F)(F)F)cc3)cc2)n1)C(C)C` [Compound 4, 4-(ethyl(isopropyl)amino)-6-(4-(4-(trifluoromethoxy)phenoxy)phenyl)-1,3,5-triazine-2-carboxamide] belongs over 20 µM; to `NC(=O)c1nc(N)nc(-c2ccc(Oc3ccc(C(F)(F)F)cn3)cc2)n1` [Compound 13, 4-amino-6-(4-((5-(trifluoromethyl)pyridin-2-yl)oxy)phenyl)-1,3,5-triazine-2-carboxamide], over 20 µM; to `NC(=O)c1nc(N[C@H]2CCNC2=O)nc(-c2ccc(Oc3ccc(OC(F)(F)F)cc3)cc2)n1` [Compound 2, (S)-4-((2-oxopyrrolidin-3-yl)amino)-6-(4-(4-(trifluoromethoxy)phenoxy)phenyl)-1,3,5-triazine-2-carboxamide], 0.326 ± 0.116 µM.

Consider `NC(=O)c1nc(N[C@H]2CCNC2=O)nc(N2CC(Oc3ccc(C(F)(F)F)cn3)C2)n1` [Compound 14, (S)-4-((2-oxopyrrolidin-3-yl)amino)-6-(3-((5-(trifluoromethyl)pyridin-2-yl)oxy)azetidin-1-yl)-1,3,5-triazine-2-carboxamide], for which the IC50 was over 20 µM.
